{"source": "patent US8017140B2", "about": "“Drug-delivery stent formulations for restenosis and vulnerable plaque” (Advanced Cardiovascular System, Inc., priority 2004, dated 2011)", "test_system": "thin-cap fibroatheroma (TCFA)", "test": "drug-eluting stent implants in hypercholesterolemic rabbit model of human thin-cap fibroatheroma", "type": "in vivo", "conditions": "28 days; compared to unstented (de novo) TCFAs", "method": "The MULTI-LINK Penta™ 13 mm was the platform for all DES and metallic stents. Both a slow release and fast release formulation of each drug were tested and the results were evaluated at 28 days. In both FIGS. 4 and 5, the test results concerning the slow release formulation were labeled with “s”, the test results concerning the fast release formulation were labeled with “f”, and the test results data concerning a formulation having both a slow and a fast release of an agent are labeled with “s+f.”", "data": [{"smiles": "C[C@]12CC[C@@H]3c4ccc(O)cc4CC[C@H]3[C@@H]1CC[C@@H]2O", "note": "[beta-estradiol, 17-beta-estradiol]", "values": [{"measurement": "percent lipid area", "result": "reduce"}, {"measurement": "total fibrous cap thickness", "result": "increase"}]}, {"smiles": "CO[C@H]1C[C@@H]2CC[C@@H](C)[C@@](O)(O2)C(=O)C(=O)N2CCCC[C@H]2C(=O)O[C@H]([C@H](C)C[C@@H]2CC[C@@H](OCCO)[C@H](OC)C2)CC(=O)[C@H](C)/C=C(\\C)[C@@H](O)[C@@H](OC)C(=O)[C@H](C)C[C@H](C)/C=C/C=C/C=C/1C", "note": "[everolimus, 40-O-(2-hydroxy)ethyl-rapamycin]", "values": [{"measurement": "percent lipid area", "result": "reduce"}, {"measurement": "total fibrous cap thickness", "result": "increase"}]}]}
